Laboratory results: paper PMC11602716 (Nature, 2024)

Tests used:
mice = assay: Saccharin-conditioned taste avoidance; type: in vivo, mouse; settings: 0.15% saccharin, s.c. 325 nmol kg^−1 EB1002 or 10 nmol kg^−1 semaglutide, n = 10 per group
NK1R, NK2R and NK3R = settings: cited from earlier work
humans = settings: cited from earlier work

Compound	average weight loss (humans)	other results
CC[C@H](C)[C@H](NC(=O)[C@H](Cc1ccccc1)NC(=O)[C@H](CCC(=O)O)NC(=O)[C@H](CCCCNC(=O)COCCOCCNC(=O)COCCOCCNC(=O)CC[C@H](NC(=O)CCCCCCCCCCCCCCCCC(=O)O)C(=O)O)NC(=O)[C@H](C)NC(=O)[C@H](C)NC(=O)[C@H](CCC(N)=O)NC(=O)CNC(=O)[C@H](CCC(=O)O)NC(=O)[C@H](CC(C)C)NC(=O)[C@H](Cc1ccc(O)cc1)NC(=O)[C@H](CO)NC(=O)[C@H](CO)NC(=O)[C@@H](NC(=O)[C@H](CC(=O)O)NC(=O)[C@H](CO)NC(=O)[C@@H](NC(=O)[C@H](Cc1ccccc1)NC(=O)[C@@H](NC(=O)CNC(=O)[C@H](CCC(=O)O)NC(=O)C(C)(C)NC(=O)[C@@H](N)Cc1cnc[nH]1)[C@@H](C)O)[C@@H](C)O)C(C)C)C(=O)N[C@@H](C)C(=O)N[C@@H](Cc1c[nH]c2ccccc12)C(=O)N[C@@H](CC(C)C)C(=O)N[C@H](C(=O)N[C@@H](CCCNC(=N)N)C(=O)NCC(=O)N[C@@H](CCCNC(=N)N)C(=O)NCC(=O)O)C(C)C [semaglutide]	–	conditioned taste avoidance (mice): aversive
neurokinin A (4–10)-S5K/L9mL/M10Nle	–	NK2R selectivity (NK1R, NK2R and NK3R): some degree of selectivity
retatrutide	up to 22.1%	–
survodutide	up to 14.9%	–
